Measurements as given in PMC9047515 (Biochemistry, 2022).
Where two headings read alike, the source gives them in different places. Each block holds one compound with its values, some of them ahead of it.

Key:
Assay in all cases: stopped-flow absorption titration
Type in all cases: binding
BesC [1] = target: T1, BesC (Streptantibioticus cattleyicolor, UniProt F8JJ25)
BesC [2] = target: T1, BesC; remark: listed apart in the source
BesC [3] = target: T1, BesC; remark: listed apart in the source

T1 sequence (F8JJ25 whole entry): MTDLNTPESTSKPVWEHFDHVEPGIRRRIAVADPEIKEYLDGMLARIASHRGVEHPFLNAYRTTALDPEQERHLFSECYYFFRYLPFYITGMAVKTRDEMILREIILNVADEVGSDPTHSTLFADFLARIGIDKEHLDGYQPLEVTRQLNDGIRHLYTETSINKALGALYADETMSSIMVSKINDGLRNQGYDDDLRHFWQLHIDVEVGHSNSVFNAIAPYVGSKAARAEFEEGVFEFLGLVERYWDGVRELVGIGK

Kd (BesC [1]): < 30 µM
SMILES: NCCSC[C@H](N)C(=O)O [4-thia-L-Lys, S-(2-aminoethyl)-L-cysteine]

SMILES: N[C@@H](CCCCO)C(=O)O [6-OH-L-Nle]
Kd (BesC [2]): 10000 ± 1000 µM

SMILES: NCCCC[C@H](N)C(=O)O [L-Lys]
Kd (BesC [3]): 300 ± 100 µM
